# Source: patent publication US20260241039A1, “FLUORESCENT PROBES FOR MAGL” (Hoffmann-La Roche Inc., priority 2022, published 2026)
# Molecular target: T1, hMAGL (Homo sapiens, UniProt Q99685)
# T1 sequence (Q99685 1-303): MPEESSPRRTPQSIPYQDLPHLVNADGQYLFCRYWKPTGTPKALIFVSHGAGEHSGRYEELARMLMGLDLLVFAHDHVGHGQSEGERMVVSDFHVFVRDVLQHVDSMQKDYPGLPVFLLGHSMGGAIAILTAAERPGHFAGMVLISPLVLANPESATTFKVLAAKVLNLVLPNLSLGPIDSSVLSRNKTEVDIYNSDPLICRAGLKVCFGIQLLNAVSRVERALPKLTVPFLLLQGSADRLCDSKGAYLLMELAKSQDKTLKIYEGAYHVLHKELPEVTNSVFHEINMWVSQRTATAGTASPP
# Test: 2-AG assay: MAGL inhibitory activity, hydrolysis of 2-arachidonoylglycerol to arachidonic acid followed by mass spectrometry
# Format: biochemical
# Details: 15 min pre-incubation at RT, 30 min reaction at RT, 8 μM 2-arachidonoylglycerol
# Protocol: Compounds were profiled for MAGL inhibitory activity by determining the enzymatic activity by following the hydrolysis of the natural substrate 2-arachidonoylglycerol (2-AG) resulting in arachidonic acid, which can be followed by mass spectrometry. This assay is hereinafter abbreviated “2-AG assay”.
# The 2-AG assay was carried out in 384 well assay plates (PP, Greiner Cat #784201) in a total volume of 20 μL. Compound dilutions were made in 100% DMSO (VWR Chemicals 23500.297) in a polypropylene plate in 3-fold dilution steps to give a final concentration range in the assay from 12.5 μM to […]. 0.25 μL compound dilutions (100% DMSO) were added to 9 μL MAGL in assay buffer (50 mM TRIS (GIBCO, 15567-027), 1 mM EDTA (Fluka, 03690-100 mL), 0.01% (v/v) Tween. After shaking, the plate was incubated for 15 min at RT. To start the reaction, 10 μL 2-arachidonoylglycerol in assay buffer was added. The final concentrations in the assay was […] and 8 μM 2-arachidonoylglyerol. After shaking and 30 min incubation at RT, the reaction was quenched by the addition of 40 μL of ACN containing 4 μM of d8-arachidonic acid. The amount of arachidonic acid was traced by an online SPE system (Agilent Rapidfire) coupled to a triple quadrupole mass spectrometer (Agilent 6460). A C18 SPE cartridge (G9205A) was used in an ACN/water liquid setup. The mass spectrometer was operated in negative electrospray mode following the mass transitions 303.1→259.1 for arachidonic acid and 311.1→267.0 for d8-arachidonic acid. The activity of the compounds was calculated based on the ratio of intensities [arachidonic acid/d8-arachidonic acid].
row,IC50,Substance
1,3.82 nM,"(4aR,8aS)-6-(7-((5,5-difluoro-5H-4λ^4, 5λ^4-dipyrrolo[1,2-c:2,1′-f][1,3,2]diazaborinin-10-yl)oxy)-2-azaspiro[3.5]nonane-2-carbonyl)hexahydro-2H-pyrido[4,3-b][1,4]oxazin-3(4H)-one [Example 10]"
2,0.34 nM,"(6-(3-cyclopropyl-1H-1,2,4-triazol-1-yl)-2-azaspiro[3.3]heptan-2-yl)(6-((5,5-difluoro-5H-4λ^4,5λ^4-dipyrrolo[1,2-c:2,1′-f][1,3,2]diazaborinin-10-yl)methyl)-2-azaspiro[3.3]heptan-2-yl)methanone [Example 25]"
3,17.2 nM,"(6-((5,5-difluoro-5H-424, 5λ^4-dipyrrolo[1,2-c:2′,1′-f][1,3,2]diazaborinin-10-yl)methyl)-2-azaspiro[3.3]heptan-2-yl)(4-(5-methyloxazolo[4,5-b]pyridin-2-yl)piperazin-1-yl)methanone [Example 26]"
4,1.01 nM,"(R)-4-(3-(6-((5,5-difluoro-5H-4λ^4,5λ^4-dipyrrolo[1,2-c:2′,1′-f][1,3,2]diazaborinin-10-yl)methyl)-2-azaspiro[3.3]heptan-2-yl)-3-oxopropyl)oxazolidin-2-one [Example 28]"

# More lines, now with the values behind:
row,Substance,IC50
1,"(4aR,8aS)-6-(6-((5,5-difluoro-3-(1H-pyrrol-2-yl)-5H-4λ^4,5λ^4-dipyrrolo[1,2-c:2′,1′-f][1,3,2]diazaborinin-10-yl)methyl)-2-azaspiro[3.3]heptane-2-carbonyl)hexahydro-2H-pyrido[4,3-b][1,4]oxazin-3(4H)-one [Example 30]",0.05 nM
2,"(4aR,8aS)-6-(6-((5,5-difluoro-3-phenyl-5H-4λ^4,5λ^4-dipyrrolo[1,2-c:2′,1′-f][1,3,2]diazaborinin-10-yl)methyl)-2-azaspiro[3.3]heptane-2-carbonyl)hexahydro-2H-pyrido[4,3-b][1,4]oxazin-3(4H)-one [Example 29]",0.66 nM
3,"(4aR,8aS)-6-(6-((5,5-difluoro-5H-4λ^4, 5λ^4-dipyrrolo[1,2-c:2′,1′-f][1,3,2]diazaborinin-10-yl)oxy)-2-azaspiro[3.3]heptane-2-carbonyl)hexahydro-2H-pyrido[4,3-b][1,4]oxazin-3(4H)-one [Example 8]",79.3 nM
4,"(4aR,8aS)-6-(7-((5,5-difluoro-5H-4λ^4, 5λ^4-dipyrrolo[1,2-c:2,1′-f][1,3,2]diazaborinin-10-yl)methyl)-2-azaspiro[3.5]nonane-2-carbonyl)hexahydro-2H-pyrido[4,3-b][1,4]oxazin-3(4H)-one [Example 19]",2.35 nM
5,"(4aR,8aS)-6-(7-((5,5-difluoro-5H-4λ^4, 5λ^4-dipyrrolo[1,2-c:2,1′-f][1,3,2]diazaborinin-10-yl)methylene)-2-azaspiro[3.5]nonane-2-carbonyl)hexahydro-2H-pyrido[4,3-b][1, 4]oxazin-3(4H)-one [Example 18]",0.64 nM
